The values below come from US20060287345A1, “Substituted 4-phenyl-4-[1h-imidazol-2-yl]-piperidine derivatives as selective non-peptide delta opiod agonists with antidepressant and anxiolytic activity” (priority 2003, published 2006).

The target in data set [1] is T1, cloned human δ opioid receptor (Homo sapiens, UniProt P41143).
T1 construct: expressed in transfected cells; host or cells: C6 glioma cells (permanently transfected)
Put plainly: Radioligand binding, competitive inhibition of [3H]DPDPE.

The target in data set [2] is cloned human μ opioid receptor (Homo sapiens, UniProt P35372). Put plainly: Radioligand binding, competition with [3H]DAMGO. Particulars: Table 8, CHO membranes, read-out: Agonist receptor binding (pIC50) mu (converted).
Sequence of cloned human μ opioid receptor (P35372 whole entry): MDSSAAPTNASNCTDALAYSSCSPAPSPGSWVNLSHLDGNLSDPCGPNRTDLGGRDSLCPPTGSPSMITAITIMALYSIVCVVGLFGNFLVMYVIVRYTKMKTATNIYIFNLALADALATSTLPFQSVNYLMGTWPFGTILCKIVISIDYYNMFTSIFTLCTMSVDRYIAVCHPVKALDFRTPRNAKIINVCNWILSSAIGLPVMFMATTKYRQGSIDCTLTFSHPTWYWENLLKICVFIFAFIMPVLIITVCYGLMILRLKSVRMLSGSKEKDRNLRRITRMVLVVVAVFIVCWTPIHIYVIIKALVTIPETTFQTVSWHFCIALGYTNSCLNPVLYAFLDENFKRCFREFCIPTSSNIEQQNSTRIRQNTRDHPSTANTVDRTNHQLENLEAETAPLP
The target in data set [3] is T2, δ opioid receptor (Homo sapiens, UniProt P41143).
T2 construct: expressed in transfected cells; host or cells: C6 glioma cells (permanently transfected)
T2 sequence (P41143 whole entry): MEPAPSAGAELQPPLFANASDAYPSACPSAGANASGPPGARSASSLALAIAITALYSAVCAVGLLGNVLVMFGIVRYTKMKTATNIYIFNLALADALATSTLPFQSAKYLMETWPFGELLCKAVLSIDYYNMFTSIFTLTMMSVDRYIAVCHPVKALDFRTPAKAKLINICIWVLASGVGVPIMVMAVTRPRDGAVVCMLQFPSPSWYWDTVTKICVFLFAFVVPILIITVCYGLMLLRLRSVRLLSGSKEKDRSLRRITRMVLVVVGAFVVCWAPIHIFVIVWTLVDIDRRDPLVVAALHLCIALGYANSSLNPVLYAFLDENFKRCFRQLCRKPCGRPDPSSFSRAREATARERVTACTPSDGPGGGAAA
Put plainly: Signal transport binding, delta antagonism. The data set is classed as biochemical.

In data set [4] the target is T2, δ opioid receptor. Description: [35S]GTPγS binding, delta agonism. The data set is classed as biochemical.
Protocol: Second messenger signaling was measured on membrane preparations via stimulation of [^35S]GTPγS binding In this functional assay, agonistic and antagonistic properties of the compounds were investigated.
The assay mixtures contained 10 μg of membrane protein. An additional 10 μg/ml saponire was added to the diluted membranes as a detergent to maximize the [^35S]GTPγS penetration through the membranes.
For testing agonistic activity, 175 μl of diluted membranes was pre-incubated in the buffer described above together with 25 μl of buffer and 25 μl of varying concentrations of the compound in a total volume of 225 μl. For antagonistic activities, the 25 μl of the buffer addition was replaced with the reference agonist for stimulating the basal levels. […]
The amount of bound radioactivity on the filter unit was determined after filter drying and scintillant addition (Nicroscint-O; Packard) by liquid scintillation counting.
Basal [^35S]GTPγS binding was measured in absence of compounds. Stimulation by agonist was calculated as the percentage increase above basal levels. The sigmoid agonist concentration response curves for increases in [^35S]GTPγS binding and antagonist inhibition curves for inhibition of the reference agonist-stimulated [^35S]GTPγS binding were analyzed by non-linear regression using the GraphPad Prism program. […]
In another data set the test system is C57BL/6 mice. Description: Mouse forced swim test. Particulars: s.c., immobility, treatment 30 min prior to test. It is filed as in vivo. Here is the method:
(§1) Antidepressant- and anxiolytic like properties of the compounds were examined in mouse tail suspension test (TS), mouse forced swim test (FS) and mouse neonatal ultrasonic vocalization test (USV).
This test has been validated as test for antidepressant-like activity (Borsini and Meli, Psychopharmacology 1988, 94, 147).
Adult male C57BL/6 mice (body weight 22-24 g Charles River, Sulzfeld, Germany) were housed individually in IVC racks and maintained under a 12:12 h light/dark cycle (lights on at 6:00 b), with food and water ad libitum.
A clear glass beaker (10 cm in diameter, 25 cm high) was filled to a depth of 10 cm with water (25° C.). Mice were placed into the water for 6 min. Immobility during the first and the last 3 min were scored automatically using the Videotrack video tracking system (Viewpoint, France), which allows detection of individual pixel movements. Four animals were tested in parallel. Treatment was given 30 min prior to test (s.c., 10 ml/kg). The water was replaced after each animal.
(§2) Data were analyzed using the non-parametric, unadjusted Wilcoxon-Mann-Whitney rank sum test. Each dose was compared with vehicle.

In the next data set the test system is NMRI mice. Description: Mouse tail suspension test. It is filed as in vivo. Particulars: s.c., immobility, 30 min after administration.
The next data set concerns neonatal C57BL/6 mice. Description: Mouse neonatal ultrasonic vocalization test. Particulars: s.c., postnatal day 3, 30 min after injection. It is filed as in vivo.
From the text: as §1
Anxiolytic compounds typically decrease the vocalizations in rat pups separated from their mother (Olivier et al., Eur. J. Pharmacol. 1998, 358, 117) More recently, this test has also been established in mice (Dirks et al., Pharmacol. Biochem. Behav. 2002, 72, 993).
Seventeen days pregnant C57BL/6 mice were obtained from Charles River (Sulzfeld, Germany). They were housed and maintained at a constant temperature of 22° C., under a 12:12 h reversed light/dark cycle (lights off at 6:00 h), with food and water ad libitum. Two times per day, cages were checked for newborn litters. Litter size was 5-8 pups/litter.
Ultrasonic vocalizatiors (USVs) were recorded in a sound attenuating, ventilated chamber at room temperature, detected at 60 kHz (range 50-70 kHz) by a bat recorder in combination with the UltraVox system (Noldus, The Netherlands). No filter was used in order to be able to record pup clicks.
Distress calls of neonatal mice were measured in neonatal C57BL/6 mice at postnatal day 3 during the early dark phase (between 8:00 and 12:00). Pups were weighed (body weight 2-3 g), followed by subcutaneous injection (10 ml/kg), and placed back into the nest. After 30 min, they were separated from the mother and placed into a beaker underneath the bat detector. The number of calls and the duration of calls were recorded over a period of 5 min.
as §2

Where [5] appears, read: Table 7, delta opioid receptor, read-out: pIC50 values for the delta opioid receptor agonist test (converted).

The structures appear in SMILES notation. Like-named read-outs stand apart in the source and are kept apart here. A value given as a limit tells only on which side of the number the result lay.

T1 sequence (P41143 whole entry): as above

Regarding `O=C(O)c1ccccc1NC(=O)N1CCC(c2ccccc2)(c2nccn2Cc2ccccc2)CC1` [Compound 11], the IC50 in data set [1] (setting [5]) was 15.8 nM.
In the case of `CCOC(=O)N1CCC(c2ccccc2)(c2nccn2Cc2ccc3ccccc3c2)CC1` [Compound 22], the IC50 in data set [1] (setting [5]) is 50.1 nM.
In data set [1], `CSc1ccccc1NC(=O)N1CCC(c2ccccc2)(c2nccn2Cc2ccccc2)CC1` [Compound 76] had an IC50 of 39.8 nM.
As for `O=C(Nc1ccccc1Cl)N1CCC(c2ccccc2)(c2nccn2Cc2ccccc2)CC1` [Compound 65], the IC50 in data set [1] (setting [5]) was 31.6 nM.
In the case of `O=C(Nc1ccccc1Br)N1CCC(c2ccccc2)(c2nccn2Cc2ccccc2)CC1` [Compound 66], in data set [1], the IC50 is 31.6 nM.
Compound `CCOC(=O)N1CCC(c2ccccc2)(c2nccn2Cc2ccc(C(=O)O)cc2)CC1` [Compound 8] came in with a melting point of 251.6 °C.
`O=C(Nc1ccccc1CO)N1CCC(c2ccccc2)(c2nccn2Cc2ccccc2)CC1` [Compound 10]: the IC50 in data set [1] (setting [5]) was 63.1 nM.
In turn, `CCN/C(=N/C#N)N1CCC(c2ccccc2)(c2nccn2Cc2ccccc2)CC1` [Compound 4] gave a melting point of 84.2 °C. The IC50 in data set [1] was 50.1 nM.
In data set [1], `O=C(C1CC1)N1CCC(c2ccccc2)(c2nccn2Cc2ccccc2)CC1` [Compound 36] showed an IC50 of 50.1 nM.
In data set [1], `O=C(NCc1ccccc1)N1CCC(c2ccccc2)(c2nccn2Cc2ccccc2)CC1` [Compound 80] gave an IC50 of 79.4 nM.
Take `O=S(=O)(Nc1ccccc1)N1CCC(c2ccccc2)(c2nccn2Cc2ccccc2)CC1` [Compound 98]: the IC50 in data set [2] ([[…] 1 nM) was 2510 nM; in data set [1], 6.31 nM; on δ opioid receptor [3], greater than 10000 nM; at δ opioid receptor [4], 794 nM.
Turning to `CCOC(=O)N1CCC(c2ccccc2)(c2nccn2Cc2ccccc2)CC1` [Compound 1, ethyl 4-phenyl-4-[1-(phenylmethyl)-1H-imidazol-2-yl]-1-piperidinecarboxylate], in the data set with C57BL/6 mice, the “Forced swim (LAD) (Lowest Active Dose tested)” value is reported as 30 mg/kg s.c. For the same compound, in the data set on NMRI mice, the “Tail suspension LAD (Lowest Active Dose tested)” value (“Tail suspension LAD” below) is 30 mg/kg s.c. In addition, the “Ultrasonic vocalization (LAD) (Lowest Active Dose tested)” value (shortened to “Ultrasonic vocalization (LAD)”) with neonatal C57BL/6 mice is reported as 10 mg/kg s.c.
Compound `O=C(Nc1ccccn1)N1CCC(c2ccccc2)(c2nccn2Cc2ccccc2)CC1` [Compound 87] gave an IC50 in data set [1] of 50.1 nM.
`O=C(Nc1ccc([N+](=O)[O-])cc1)N1CCC(c2ccccc2)(c2nccn2Cc2ccccc2)CC1` [Compound 71] gave an IC50 in data set [1] of 50.1 nM.
For `O=C(c1ccccc1)N1CCC(c2ccccc2)(c2nccn2Cc2ccccc2)CC1` [Compound 2], in the data set with NMRI mice, the “Tail suspension LAD” value was 10 mg/kg s.c. For the same compound, in the data set on neonatal C57BL/6 mice, the “Ultrasonic vocalization (LAD)” value was 1 mg/kg s.c.
In the case of `CCCCNC(=O)N1CCC(c2ccccc2)(c2nccn2Cc2ccccc2)CC1` [Compound 50], the IC50 in data set [1] is 25.1 nM.
For `CCOC(=O)N1CCC(c2ccccc2)(c2nccn2C(C)c2ccccc2)CC1` (centres unmarked) [Compound 20], the “Tail suspension LAD” value with NMRI mice is listed as 30 mg/kg s.c. Also, the “Ultrasonic vocalization (LAD)” value with neonatal C57BL/6 mice is listed as 30 mg/kg s.c.
On to `CC(c1ccccc1)n1ccnc1C1(c2ccccc2)CCN(c2nc3ccccc3o2)CC1` (centres unmarked) [Compound 101], for which the IC50 in data set [1] was 15.8 nM.
On to `COC(=O)c1ccc(Cn2ccnc2C2(c3ccccc3)CCN(C(=O)Nc3ccccc3)CC2)cc1` [Compound 52], for which, in data set [1] (setting [5]), the IC50 was 20 nM.
On to `CCOC(=O)c1ccc(C(C)n2ccnc2C2(c3ccccc3)CCN(C(=O)OCC)CC2)cc1` (centres unmarked) [Compound 19], for which the IC50 in data set [2] ([3H]DAMGO 1 nM) is greater than 1000 nM; in data set [1] (Agonist receptor binding (pIC50) delta, Table 8, [3H]DPDPE 2 nM, C6 glioma cell membranes), 6.31 nM; at δ opioid receptor [3] (Table 8, against reference agonist DPDPE, read-out: Signal transport binding (pIC50) delta antag. (converted)), greater than 10000 nM; on δ opioid receptor [4] (Table 8, [35S]GTPγS binding, membranes, read-out: Signal transport binding (pIC50) delta agonism GTPγS (converted)), 316 nM.
Compound `c1ccc(Cn2ccnc2C2(c3ccccc3)CCN(c3nccs3)CC2)cc1` [Compound 105] gave an IC50 in data set [1] of 12.6 nM.
Still for that read-out and setting: the same measure for `O=C(OC1CCCCC1)N1CCC(c2ccccc2)(c2nccn2Cc2ccccc2)CC1` [Compound 28]: 15.8 nM.
On the same count and under the same terms, the figure for `c1ccc(Cn2ccnc2C2(c3ccccc3)CCN(c3ncccn3)CC2)cc1` [Compound 103] is 20 nM; for `O=C(Nc1ccc2ccccc2c1)N1CCC(c2ccccc2)(c2nccn2Cc2ccccc2)CC1` [Compound 81] it is 63.1 nM; for `CCOC(=O)CNC(=O)N1CCC(c2ccccc2)(c2nccn2Cc2ccccc2)CC1` [Compound 48] it is 79.4 nM.
`CCN(CC)C(=O)c1ccc(Cn2ccnc2C2(c3ccccc3)CCN(c3nc4ccccc4o3)CC2)cc1` [Compound 99] showed an IC50 in data set [1] of 50.1 nM.
In the case of `O=C(Nc1ccccc1Oc1ccccc1)N1CCC(c2ccccc2)(c2nccn2Cc2ccccc2)CC1` [Compound 75], the IC50 in data set [1] was 39.8 nM.
Take `COC(=O)c1ccc(Cn2ccnc2C2(c3ccccc3)CCN(c3nc4ccccc4s3)CC2)cc1` [Compound 102]: the IC50 was greater than 1000 nM in data set [2] ([3H]DAMGO 1 nM) and 3.16 nM in data set [1] (Table 8, [3H]DPDPE 2 nM, C6 glioma cell membranes, read-out: Agonist receptor binding (pIC50) delta (converted)).
In the case of `O=C(c1csc(-c2cccnc2)n1)N1CCC(c2ccccc2)(c2nccn2Cc2ccccc2)CC1` [Compound 84], in data set [1] (setting [5]), the IC50 is 31.6 nM.
On to `CCOc1ccccc1NC(=O)N1CCC(c2ccccc2)(c2nccn2Cc2ccccc2)CC1` [Compound 70], for which the IC50 in data set [1] is 39.8 nM.
In data set [1], `O=C(NC1CCCCC1)N1CCC(c2ccccc2)(c2nccn2Cc2ccccc2)CC1` [Compound 51] had an IC50 of 50.1 nM.
Turning to `COc1ccc(Cl)cc1NC(=O)N1CCC(c2ccccc2)(c2nccn2Cc2ccccc2)CC1` [Compound 78], the IC50 in data set [1] (setting [5]) is 12.6 nM.
Consider `COC(=O)c1ccccc1NC(=O)N1CCC(c2ccccc2)(c2nccn2Cc2ccccc2)CC1` [Compound 7], for which, in data set [1], the IC50 was 20 nM.
For `CCOC(=O)N1CCC(c2ccccc2)(c2nccn2Cc2ccc(C(=O)OC)cc2)CC1` [Compound 3], the melting point amounted to 149.1 °C.
Take `O=C(c1cc(C(F)(F)F)cc(C(F)(F)F)c1)N1CCC(c2ccccc2)(c2nccn2Cc2ccccc2)CC1` [Compound 42]: in data set [1] (setting [5]), the IC50 was 63.1 nM.
